Assays:
[1] = target: HIV-1 RT-associated RNA dependent DNA polymerase (Human immunodeficiency virus type 1 group M subtype B, UniProt P04585); experiment: biochemical
HIV-2 (ROD strain) = experiment: Antiviral assay, HIV-2; type: cell-based; details: acutely infected MT-4 cells; at concentrations less than cytotoxic
HIV-1 (IIIB strain) = experiment: Antiviral assay, HIV-1; type: cell-based; details: acutely infected MT-4 cells; at concentrations less than cytotoxic
[2] = Cytotoxicity in mock-infected MT-4 cells; type: cell-based; details: human
[3] = target: T1, HIV-1 RT-associated RNase H (Human immunodeficiency virus type 1 group M subtype B, UniProt P04585); experiment: HIV-1 DNA polymerase-independent RNase H activity determination; type: biochemical
[4] = target: T1, HIV-1 RT-associated RNase H; experiment: RNase H assay with modified order of addition; type: biochemical; details: for Fold increase of IC50 versus the regular assay: inhibitor added after duplex substrate vs regular assay
HIV-1 RT heterodimer = HIV-1 RT heterodimer (Human immunodeficiency virus type 1 group M subtype B, UniProt P04585); experiment: Differential Scanning Fluorimetry; type: binding; details: 10 μM inhibitor, 300 nM HIV-1 RT; data not shown

In the case of `O=C(Cc1ccccc1F)Nc1sc2c(c1C(=O)Nc1ccccn1)CCCCC2` [Compound 36, 2-(2-(2-Fluorophenyl)acetamido)-N-(pyridin-2-yl)-5,6,7,8-tetrahydro-4H-cyclohepta[b]thiophene-3-carboxamide], the IC50 [1] is reported as > 50 µM.
With `COc1ccc(C(=O)Nc2sc3c(c2C(=O)Nc2ccccn2)CCCCC3)cc1OC` [Compound 31, 2-(3,4-Dimethoxybenzamido)-N-(pyridin-2-yl)-5,6,7,8-tetrahydro-4H-cyclohepta[b]thiophene-3-carboxamide] the IC50 [1] was > 50 µM, the “Inhibition of HIV-2 (ROD) replication” value (HIV-2 (ROD strain)) was “unable to affect viral replication” and the “Inhibition of HIV-1 (IIIB) replication” value (HIV-1 (IIIB strain)) was “unable to affect viral replication”. The CC50 at 5 days [2] was 6.24 µM, the IC50 [3] was 4.01 ± 1 µM and the “Fold decrease in RNase H potency relative to compound 33” value ([3]; O-methylated hydroxyl groups vs catechol 33) was 5 fold. The IC50 [4] was 20 ± 7 µM, the “Fold increase of IC50 versus the regular assay” value [4] was 5 fold and the “Effect on Tm of the RT heterodimer” value (HIV-1 RT heterodimer) was “no decreased Tm”.
In the case of `COc1ccc(C(=O)Nc2sc3c(c2C(=O)Nc2ccccn2)CCCCC3)c(O)n1` [Compound 32, 2-Hydroxy-6-methoxy-N-(3-(pyridin-2-ylcarbamoyl)-5,6,7,8-tetrahydro-4H-cyclohepta[b]thiophen-2-yl)nicotinamide], the IC50 [3] is reported as 15.1 ± 1.3 µM.
In the case of `O=C(Nc1sc2c(c1C(=O)Nc1ccccn1)CCCCC2)c1cccs1` [Compound 34, N-(Pyridin-2-yl)-2-(thiophene-2-carboxamido)-5,6,7,8-tetrahydro-4H-cyclohepta[b]thiophene-3-carboxamide], the IC50 [1] is reported as > 50 µM and the IC50 [3] is reported as 10.4 ± 1.96 µM.
With `COc1ccc(C(=O)Nc2sc3c(c2C(=O)Nc2ccccn2)CCCCC3)c(OC)n1` [Compound 30, 2,6-Dimethoxy-N-(3-(pyridin-2-ylcarbamoyl)-5,6,7,8-tetrahydro-4H-cyclohepta[b]thiophen-2-yl)nicotinamide] the IC50 [3] was 21.5 ± 1 µM.
For `O=C(Nc1sc2c(c1C(=O)Nc1ccccn1)CCCCC2)c1ccccc1[N+](=O)[O-]` [Compound 24, 2-(2-Nitrobenzamido)-N-(pyridin-2-yl)-5,6,7,8-tetrahydro-4H-cyclohepta[b]thiophene-3-carboxamide], the IC50 [3] was 53.5 ± 1.7 µM.
For `O=C(Nc1sc2c(c1C(=O)Nc1ccccn1)CCCCC2)c1ccc(O)c(O)c1` [Compound 33, 2-(3,4-Dihydroxybenzamido)-N-(pyridin-2-yl)-5,6,7,8-tetrahydro-4H-cyclohepta[b]thiophene-3-carboxamide], the IC50 [1] was 20.9 ± 1.7 µM, the “Inhibition of HIV-2 (ROD) replication” value (HIV-2 (ROD strain)) was “unable to affect viral replication” and the “Inhibition of HIV-1 (IIIB) replication” value (HIV-1 (IIIB strain)) was “unable to affect viral replication”. For the same compound, the CC50 at 5 days [2] was 30.7 µM, the IC50 [4] was 5.3 ± 0.2 µM and the “Fold increase of IC50 versus the regular assay” value [4] was 5 fold. For the same compound, the “Effect on Tm of the RT heterodimer” value (HIV-1 RT heterodimer) was “no decreased Tm”.
`Nc1ccccc1C(=O)Nc1sc2c(c1C(=O)Nc1ccccn1)CCCCC2` [Compound 26, 2-(2-Aminobenzamido)-N-(pyridin-2-yl)-5,6,7,8-tetrahydro-4H-cyclohepta[b]thiophene-3-carboxamide] showed an IC50 [3] of 14.9 ± 4.1 µM.
In the case of `O=C(Nc1sc2c(c1C(=O)Nc1ccccn1)CCCCC2)c1ccccc1Br` [Compound 23, 2-(2-Bromobenzamido)-N-(pyridin-2-yl)-5,6,7,8-tetrahydro-4H-cyclohepta[b]thiophene-3-carboxamide], the IC50 [1] is reported as > 50 µM and the IC50 [3] is reported as 4.57 ± 0.01 µM.
Work on `Nc1ccc(C(=O)Nc2sc3c(c2C(=O)Nc2ccccn2)CCCCC3)cc1` [Compound 27, 2-(4-Aminobenzamido)-N-(pyridin-2-yl)-5,6,7,8-tetrahydro-4H-cyclohepta[b]thiophene-3-carboxamide] yielded an IC50 [3] of 21.4 ± 4.4 µM.
For `CC(=O)Nc1sc2c(c1C(=O)Nc1ccccn1)CCCCC2` [Compound 35, 2-Acetamido-N-(pyridin-2-yl)-5,6,7,8-tetrahydro-4H-cyclohepta[b]thiophene-3-carboxamide], the IC50 [3] was > 100 µM.
For `O=C(Nc1sc2c(c1C(=O)Nc1ccccc1F)CCCCC2)c1ccccn1` [Compound 37, N-(3-((2-Fluorophenyl)carbamoyl)-5,6,7,8-tetrahydro-4H-cyclohepta[b]thiophen-2-yl)picolinamide], the IC50 [3] was 13.7 ± 1.6 µM.
`Cc1ccccc1C(=O)Nc1sc2c(c1C(=O)Nc1ccccn1)CCCCC2` [Compound 29, 2-(2-Methylbenzamido)-N-(pyridin-2-yl)-5,6,7,8-tetrahydro-4H-cyclohepta[b]thiophene-3-carboxamide] gave an IC50 [3] of 18.3 ± 1.8 µM.

From PMC6309732 (ChemMedChem, 2016)
